Reference: ChEMBL document CHEMBL5528052, “Single Deletion Unmasks Hidden Anti-Gram-Negative Bacterial Activity of an Insect Defensin-Derived Peptide” (J Med Chem, 2024)
Activity calls are given as the source filed them. Bridge positions count the residues as written; N and C are the ends. Peptide text beside a SMILES is read from it.

What was measured:
[1] = Retention time of the compound by RP-HPLC analysis; type: physicochemical
[2] = system: Priestia megaterium; assay: Antimicrobial activity against Bacillus megaterium CGMCC 1.0459 assessed as lethal concentration; type: functional
[3] = system: Bacillus subtilis; assay: Antimicrobial activity against Bacillus subtilis CGMCC 1.2428 assessed as lethal concentration; type: functional
[4] = system: Curtobacterium luteum; assay: Antimicrobial activity against Curtobacterium luteum assessed as lethal concentration; type: functional
[5] = system: Lysinibacillus fusiformis; assay: Antimicrobial activity against Lysinibacillus fusiformis assessed as lethal concentration; type: functional
[6] = system: Micrococcus luteus; assay: Antimicrobial activity against Micrococcus luteus CGMCC 1.0290 assessed as lethal concentration; type: functional
[7] = system: Staphylococcus; assay: Antimicrobial activity against methicillin-resistant coagulase negative Staphylococcus P1369 assessed as lethal concentration; type: functional
[8] = system: Staphylococcus aureus; assay: Antimicrobial activity against methicillin-resistant Staphylococcus aureus P1374 assessed as lethal concentration; type: functional
[9] = system: Staphylococcus epidermidis; assay: Antimicrobial activity against penicillin-resistant Staphylococcus epidermidis P1389 assessed as lethal concentration; type: functional
[10] = system: Staphylococcus aureus; assay: Antimicrobial activity against Staphylococcus aureus J685 assessed as lethal concentration; type: functional
[11] = system: Streptococcus sanguinis; assay: Antimicrobial activity against Streptococcus sanguinis ATCC 1.2497 assessed as lethal concentration; type: functional
[12] = system: Staphylococcus aureus; assay: Antimicrobial activity against methicillin-resistant Staphylococcus aureus P1386 at 1 nmol relative to control; type: functional, organism-based
[13] = system: Staphylococcus aureus; assay: Antimicrobial activity against Staphylococcus aureus J685 at 1 nmol relative to control; type: functional, organism-based
[14] = system: Staphylococcus warneri; assay: Antimicrobial activity against Staphylococcus warneri ATCC 1.2824 at 1 nmol relative to control; type: functional, organism-based
[15] = system: Streptococcus salivarius; assay: Antimicrobial activity against Streptococcus salivarius ATCC 1.2498 at 1 nmol relative to control; type: functional, organism-based
[16] = system: Alcaligenes faecalis; assay: Antimicrobial activity against Alcaligenes faecalis CGMCC 1.1837 at 1 nmol relative to control; type: functional, organism-based
[17] = system: Escherichia coli; assay: Antimicrobial activity against Escherichia coli J16c at 1 nmol relative to control; type: functional, organism-based
[18] = system: Escherichia coli; assay: Antimicrobial activity against Escherichia coli J23a at 1 nmol relative to control; type: functional, organism-based
[19] = system: Escherichia coli; assay: Antimicrobial activity against Escherichia coli J14b at 1 nmol relative to control; type: functional, organism-based
[20] = system: Escherichia coli; assay: Antimicrobial activity against Escherichia coli G2b at 1 nmol relative to control; type: functional, organism-based
[21] = system: Escherichia coli; assay: Antimicrobial activity against Escherichia coli J45b at 1 nmol relative to control; type: functional, organism-based
[22] = system: Escherichia coli; assay: Antimicrobial activity against Escherichia coli DH5alpha at 1 nmol relative to control; type: functional, organism-based
[23] = system: Pseudomonas aeruginosa; assay: Antimicrobial activity against Pseudomonas aeruginosa O1 at 1 nmol relative to control; type: functional, organism-based
[24] = system: Pseudomonas aeruginosa; assay: Antimicrobial activity against Pseudomonas aeruginosa at 1 nmol relative to control; type: functional, organism-based
[25] = system: Pseudomonas aeruginosa; assay: Antimicrobial activity against Pseudomonas aeruginosa FRD1 at 1 nmol relative to control; type: functional, organism-based
[26] = system: Pseudomonas aeruginosa; assay: Antimicrobial activity against Pseudomonas aeruginosa 374 at 1 nmol relative to control; type: functional, organism-based
[27] = system: Pseudomonas aeruginosa; assay: Antimicrobial activity against Pseudomonas aeruginosa 11082603 at 1 nmol relative to control; type: functional, organism-based
[28] = system: Pseudomonas aeruginosa; assay: Antimicrobial activity against Pseudomonas aeruginosa 11082616 at 1 nmol relative to control; type: functional, organism-based
[29] = system: Pseudomonas aeruginosa; assay: Antimicrobial activity against Pseudomonas aeruginosa 11092304 at 1 nmol relative to control; type: functional, organism-based
[30] = system: Pseudomonas aeruginosa; assay: Antimicrobial activity against Pseudomonas aeruginosa 11092618 at 1 nmol relative to control; type: functional, organism-based
[31] = system: Pseudomonas aeruginosa; assay: Antimicrobial activity against Pseudomonas aeruginosa DH at 1 nmol relative to control; type: functional, organism-based
[32] = system: Pseudomonas aeruginosa; assay: Antimicrobial activity against Pseudomonas aeruginosa QT1 at 1 nmol relative to control; type: functional, organism-based
[33] = system: Ralstonia solanacearum; assay: Antimicrobial activity against Ralstonia solanacearum at 1 nmol relative to control; type: functional, organism-based
[34] = system: Salmonella enterica; assay: Antimicrobial activity against Salmonella enterica ATCC 14028 at 1 nmol relative to control; type: functional, organism-based
[35] = system: Stenotrophomonas maltophilia; assay: Antimicrobial activity against Stenotrophomonas maltophilia CGMCC 1.1788 at 1 nmol relative to control; type: functional, organism-based
[36] = system: Geotrichum candidum; assay: Antifungal activity against Geotrichum candidum CCTCC AY 93038 at 1 nmol relative to control; type: functional, organism-based
[37] = system: Komagataella pastoris; assay: Antifungal activity against Pichia pastoris X33 at 1 nmol relative to control; type: functional, organism-based
[38] = system: Aspergillus nidulans; assay: Antifungal activity against Aspergillus nidulans A28 at 1 nmol relative to control; type: functional, organism-based
[39] = system: Aspergillus fumigatus; assay: Antifungal activity against Aspergillus fumigatus YJ-407 at 1 nmol relative to control; type: functional, organism-based
[40] = system: Aspergillus flavus; assay: Antifungal activity against Aspergillus flavus at 1 nmol relative to control; type: functional, organism-based
[41] = system: Aspergillus niger; assay: Antifungal activity against Aspergillus niger at 1 nmol relative to control; type: functional, organism-based
[42] = system: Beauveria bassiana; assay: Antifungal activity against Beauveria bassiana 252 at 1 nmol relative to control; type: functional, organism-based
[43] = system: Metarhizium robertsii; assay: Antifungal activity against Metarhizium robertsii at 1 nmol relative to control; type: functional, organism-based
[44] = system: Bacillus subtilis; assay: Antimicrobial activity against Bacillus subtilis CGMCC 1.2428 at 1 nmol relative to control; type: functional, organism-based
[45] = system: Lysinibacillus fusiformis; assay: Antimicrobial activity against Lysinibacillus fusiformis at 1 nmol relative to control; type: functional, organism-based
[46] = system: Staphylococcus aureus; assay: Antimicrobial activity against methicillin-resistant Staphylococcus aureus P1374 at 1 nmol relative to control; type: functional, organism-based
[47] = system: Staphylococcus aureus; assay: Antimicrobial activity against penicillin-resistant Staphylococcus aureus P1383 at 1 nmol relative to control; type: functional, organism-based
[48] = system: Staphylococcus epidermidis; assay: Antimicrobial activity against penicillin-resistant Staphylococcus epidermidis P1389 at 1 nmol relative to control; type: functional, organism-based
[49] = system: Streptococcus mutans; assay: Antimicrobial activity against Streptococcus mutans ATCC 1.2499 at 1 nmol relative to control; type: functional, organism-based
[50] = system: Streptococcus sanguinis; assay: Antimicrobial activity against Streptococcus sanguinis ATCC 1.2497 at 1 nmol relative to control; type: functional, organism-based
[51] = system: Salmonella enterica; assay: Antimicrobial activity against Salmonella enterica ATCC 14028 at 0.25 to 1 nmol; type: functional, organism-based; details: dose 0.25-1 nmol
[52] = system: Curtobacterium luteum; assay: Antimicrobial activity against Curtobacterium luteum at 1 nmol relative to control; type: functional, organism-based
[53] = system: Staphylococcus; assay: Antimicrobial activity against methicillin-resistant coagulase negative Staphylococcus P1369 at 1 nmol relative to control; type: functional, organism-based
[54] = system: Priestia megaterium; assay: Antimicrobial activity against Bacillus megaterium CGMCC 1.0459 at 1 nmol; type: functional, organism-based
[55] = system: Micrococcus luteus; assay: Antimicrobial activity against Micrococcus luteus CGMCC 1.0290 at 1 nmol relative to control; type: functional, organism-based
[56] = system: Erythrocyte; assay: Hemolytic activity in mouse erythrocytes assessed as hemolysis at 100 uM; type: toxicity, cell-based

CC[C@H](C)[C@H](NC(=O)[C@H](C)NC(=O)[C@H](CCCCN)NC(=O)[C@H](CC(N)=O)NC(=O)[C@H](CC(N)=O)NC(=O)[C@H](CS)NC(=O)[C@H](Cc1ccc(O)cc1)NC(=O)[C@H](CS)NC(=O)[C@@H](NC(=O)[C@H](C)N)[C@@H](C)O)C(=O)N[C@@H](CS)C(=O)N[C@H](C(=O)N[C@H](CS)C(=O)N[C@H](CCCNC(=N)N)C(=O)N[C@H](CCCNC(=N)N)C(N)=O)C(C)C
1.96 µM: LD [6]
8.34 µM: LD [10]
2.44 µM: LD [2]
15.2 min: Retention_time [1]
inactive: Activity [12] | Activity [13] | Activity [14] | Activity [15] | Activity [16] | Activity [17] | Activity [18] | Activity [19] | Activity [20] | Activity [21] | Activity [22] | Activity [23] | Activity [24] | Activity [25] | Activity [26] | Activity [27] | Activity [28] | Activity [29] | Activity [30] | Activity [31] | Activity [32] | Activity [33] | Activity [34] | Activity [35] | Activity [36] | Activity [37] | Activity [38] | Activity [39] | Activity [40] | Activity [41] | Activity [42] | Activity [43]
0.13 µM: LD [4]
4.31 µM: LD [7]
3.54 µM: LD [3]
14.29 µM: LD [8]
5.35 µM: LD [5]
4.1 µM: LD [9]
10.4 µM: LD [11]

CC[C@H](C)[C@@H]1NC(=O)[C@H](CCCCN)NC(=O)[C@H](CC(N)=O)NC(=O)[C@H](CC(N)=O)NC(=O)[C@@H]2CSSC[C@H](NC1=O)C(=O)N[C@@H](C(C)C)C(=O)N[C@H](C(=O)N[C@@H](CCCNC(=N)N)C(=O)N[C@@H](CCCNC(=N)N)C(=O)O)CSSC[C@H](NC(=O)[C@@H](NC(=O)[C@H](C)N)[C@@H](C)O)C(=O)N[C@@H](Cc1ccc(O)cc1)C(=O)N2 (H-ATCYCNNKICVCRR-OH; disulfide 3-12, 5-10)
inactive: Activity [44] | Activity [45] | Activity [46] | Activity [47] | Activity [12] | Activity [48] | Activity [13] | Activity [14] | Activity [49] | Activity [15] | Activity [50] | Activity [16] | Activity [17] | Activity [18] | Activity [19] | Activity [20] | Activity [21] | Activity [22] | Activity [23] | Activity [24] | Activity [25] | Activity [26] | Activity [27] | Activity [28] | Activity [29] | Activity [30] | Activity [31] | Activity [32] | Activity [33] | Activity [34] | Activity [35] | Activity [36] | Activity [37] | Activity [38] | Activity [39] | Activity [40] | Activity [41] | Activity [42] | Activity [43] | Activity [51]
5.3 µM: LD [7]
4.3 µM: LD [4]
16 min: Retention_time [1]
2.58 µM: LD [2]
3.52 µM: LD [6]

H-ATSYSNNKISVSRR-NH2
active: Activity [54]
inactive: Activity [44] | Activity [52] | Activity [45] | Activity [53] | Activity [46] | Activity [47] | Activity [12] | Activity [48] | Activity [13] | Activity [14] | Activity [49] | Activity [15] | Activity [50] | Activity [16] | Activity [17] | Activity [18] | Activity [19] | Activity [20] | Activity [21] | Activity [22] | Activity [23] | Activity [24] | Activity [25] | Activity [26] | Activity [27] | Activity [28] | Activity [29] | Activity [30] | Activity [31] | Activity [32] | Activity [33] | Activity [34] | Activity [35] | Activity [36] | Activity [37] | Activity [38] | Activity [39] | Activity [40] | Activity [41] | Activity [42] | Activity [43] | Activity [55]

H-FFGHLFKLATKIIPSLFQ-OH
Non-Toxic: Activity [56]
